Measurements taken from patent US20160326143A1, “COMPOUNDS AND USES” (AstraZeneca AB, priority 2015, published 2016).

What was measured:
[1] = molecular target: Recombinant human LTC4 synthase (Homo sapiens (Human), UniProt Q16873); assay: In vitro hLTC4 synthase enzyme assay (Test A); assay type: biochemical; details: Test A (Examples 1-61); substrate LTA4, LTC4 detected by HTRF; median of at least two determinations
Description: In Vitro hLTC4 Synthase Enzyme Assay (Test A)
Recombinant human LTC4 synthase is expressed in Piccia pastoralis and the purified enzyme is dissolved in 25 mM tris-buffer pH 7.8 supplemented with 0.1 mM glutathione (GSH) and stored at −80° C.
The buffer is used as background. Runs are performed in duplicates.
The reaction is stopped after 1 min by addition of double the reaction volume of a stop solution (MeOH:H2O:acetic acid 70:30:1).
After 15 fold dilution in PBS, LTC4 formation is detected with LTC4 HTRF kit (Cisbio, cat. No 64LC4PEC) and a fluorescence reader. Typically 6 μL of sample is mixed with 3 μL of each of the HTRF reagents d2 and k and analyzed as described in the kit manual.

[2] = molecular target: human recombinant purified LTC4 synthase (Homo sapiens (Human), UniProt Q16873); details: read-out: hLTC4 synthase IC50; Test B (Examples 62-65); substrate LTA4 methyl ester, product detected by LCMSMS; median of at least two determinations
human recombinant purified LTC4 synthase, sequence (Q16873 whole entry): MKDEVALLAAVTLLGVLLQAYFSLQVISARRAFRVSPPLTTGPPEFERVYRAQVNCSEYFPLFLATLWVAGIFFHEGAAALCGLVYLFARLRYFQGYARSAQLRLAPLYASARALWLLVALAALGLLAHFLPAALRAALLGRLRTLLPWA

Recombinant human LTC4 synthase, sequence (Q16873 whole entry): as above

Row | IC50 [1] [nM] | IC50 [2] [nM] | SMILES
1 | 35 | – | COc1cc(N(CC2CC2)c2ccc(C)c3ccccc23)cnc1C(=O)C1CC1C(=O)O (stereo not shown) [Example 11, 2-(5-((Cyclopropylmethyl)(4-methylnaphthalen-1-yl)amino)-3-methoxypicolinoyl)cyclopropanecarboxylic acid]
2 | 277 | – | COc1cc(N(CC2CC2)c2ccc(Cl)cc2)cnc1C(=O)C1CC1C(=O)NS(=O)(=O)c1ccc(OC(F)(F)F)cc1 (stereo not shown) [Example 42, 2-(5-((4-Chlorophenyl)(cyclopropylmethyl)amino)-3-methoxypicolinoyl)-N-((4-(trifluoromethoxy)phenyl)-sulfonyl)cyclopropanecarboxamide]
3 | 96 | – | COc1cc(N(CC2CC2)c2cccc3ccccc23)cnc1C(=O)C1CC1c1nnn[nH]1 (stereo not shown) [Example 60, (2-(1H-Tetrazol-5-yl)cyclopropyl)(5-((cyclopropylmethyl)(naphthalen-1-yl)amino)-3-methoxypyridin-2-yl)methanone]
4 | 67 | – | COc1cc(N(Cc2cccc(C)c2C)CC2CC2)cnc1C(=O)C1CC1C(=O)O (stereo not shown) [Example 28, 2-(5-((Cyclopropylmethyl)(2,3-dimethylbenzyl)amino)-3-methoxypicolinoyl)cyclopropanecarboxylic acid]
5 | 229 | – | COc1cc(N(CC2CC2)c2ccc(C(F)(F)F)c3cccnc23)cnc1C(=O)C1CC1C(=O)O (stereo not shown) [Example 35, 2-(5-((Cyclopropylmethyl)(5-(trifluoromethyl)quinolin-8-yl)amino)-3-methoxypicolinoyl)cyclopropanecarboxylic acid]
6 | 47 | – | COc1cc(N(CC2(C)CC2)c2ccc3c(c2)CCC3)cnc1C(=O)C1CC1C(=O)O (stereo not shown) [Example 6, 2-(5-((2,3-Dihydro-1H-inden-5-yl)((1-methylcyclopropyl)methyl)amino)-3-methoxypicolinoyl)cyclopropanecarboxylic acid]
7 | 38 | – | COc1cc(N(CC2(C)CC2)c2ccc(Cl)cc2)cnc1C(=O)C1CC1C(=O)O (stereo not shown) [Example 5, 2-(5-((4-Chlorophenyl)((1-methylcyclopropyl)methyl)amino)-3-methoxypicolinoyl)cyclopropanecarboxylic acid]
8 | – | 0.658 | COc1cc(N(CC(C)C)c2cc(C(F)(F)F)ccc2F)cnc1C(=O)[C@H]1C[C@@H]1C(=O)O [Example 65, (1S,2S)-2-[(5-{[2-Fluoro-5-(trifluoromethyl)phenyl](2-methylpropyl)amino}-3-methoxypyridin-2-yl)carbonyl]cyclopropanecarboxylic acid]
9 | 424 | – | O=C(O)C1CC1C(=O)c1ccc(N(CC2CC2)c2ccc(Cl)cc2)cn1 (stereo not shown) [Example 54, 2-(5-((4-Chlorophenyl)(cyclopropylmethyl)amino)picolinoyl)cyclopropanecarboxylic acid]
10 | 39 | – | COc1cc(N(Cc2cccc(Cl)c2)CC2CC2)cnc1C(=O)C1CC1C(=O)O (stereo not shown) [Example 18, 2-(5-((3-Chlorobenzyl)(cyclopropylmethyl)amino)-3-methoxypicolinoyl)cyclopropanecarboxylic acid]
11 | 81 | – | COc1ccc(S(=O)(=O)NC(=O)C2CC2C(=O)c2ncc(N(CC3CC3)c3ccc(Cl)cc3)cc2OC)cc1 (stereo not shown) [Example 41, 2-(5-((4-Chlorophenyl)(cyclopropylmethyl)amino)-3-methoxypicolinoyl)-N-((4-methoxyphenyl)sulfonyl)-cyclopropanecarboxamide]
12 | – | 0.248 | COc1nc(N(CC(C)(C)F)c2cc(C(F)(F)F)ccc2F)cnc1C(=O)[C@H]1C[C@@H]1C(=O)O [Example 63, (1S,2S)-2-[(5-{(2-Fluoro-2-methylpropyl)[2-fluoro-5-(trifluoromethyl)phenyl]amino}-3-methoxypyrazin-2-yl)carbonyl]cyclopropanecarboxylic acid]
13 | 112 | – | COc1cc(N(Cc2cccc(C(F)(F)F)c2Cl)CC2CC2)cnc1C(=O)C1CC1C(=O)O (stereo not shown) [Example 22, 2-(5-((2-Chloro-3-(trifluoromethyl)benzyl)(cyclopropylmethyl)amino)-3-methoxypicolinoyl)cyclopropanecarboxylic acid]
14 | 370 | – | COc1cc(N(Cc2ccc(F)c(F)c2F)CC2CC2)cnc1C(=O)C1CC1C(=O)O (stereo not shown) [Example 29, 2-(5-((Cyclopropylmethyl)(2,3,4-trifluorobenzyl)amino)-3-methoxypicolinoyl)cyclopropanecarboxylic acid]
15 | 50 | – | COc1nc(C(=O)C2CC2C(=O)O)ncc1N(CC1CC1)c1cccc2ccccc12 (stereo not shown) [Example 57, 2-(5-((Cyclopropylmethyl)(naphthalen-1-yl)amino)-4-methoxypyrimidine-2-carbonyl)cyclopropanecarboxylic acid]
16 | 28 | – | COc1cc(N(CC2CC2)c2ccc3ccccc3c2)cnc1C(=O)C1CC1C(=O)O (stereo not shown) [Example 12, 2-(5-((Cyclopropylmethyl)(naphthalen-2-yl)amino)-3-methoxypicolinoyl)cyclopropanecarboxylic acid]
